Reference: patent publication US7858741B2, “Stabilization of the collagen triple helix by O-methylation of hydroxyproline residues” (Wisconsin Alumni Research Foundation, priority 2008, dated 2010)
Read-outs that look alike come from different tables or passages of the source. Marks after values point to notes of the source that are not given here.

Columns and labels:
[1] = cited from earlier work
[2] = cited from earlier work; remark: listed apart in the source
[3] = Thermal denaturation of collagen triple helices by circular dichroism (Tm); assay type: physicochemical; settings: for Tm, water / Tm, EG(aq): circular dichroism, peptide 200 μM; for Tm, water: 50 mM HOAc (pH 3.0); for Tm, EG(aq): 2:1 EG/50 mM HOAc (pH 3.0)
Description: CD spectra were recorded with an Aviv 202SF circular dichroism spectrometer. Spectra were recorded on peptide solutions (100 μM in 50 mM HOAc (pH 2.9)) that had been incubated at ≦4° C. for ≧48 h in 1-nm increments with a 3-s averaging time, 1-nm bandpass, and 0.1-cm pathlength. Samples for thermal stability experiments were generated by incubating peptide solutions (200 μM) at 4° C. for ≧48 h. The solutions were then heated from 4° C. to 97° C. (for samples in 50 mM HOAc (aq) (pH 2.9)) or to 106° C. (for samples in 2:1 ethylene glycol/50 mM HOAc(aq)) at 3-° C. increments with a 5-min equilibration at each step. The ellipticity at 225 nm was monitored with a 5-s averaging time, 1-nm bandpass, and 0.1-cm pathlength. Values of Tm were determined by fitting the data to a two-state model. (See Becktel and Schellman Biopolymers 26:1859-1877 (1987)).

[4] = Differential scanning calorimetry (DSC) of triple-helix unfolding; assay type: physicochemical; settings: for Tm (DSC exotherm maxima): scan rate 15° C./h; for TΔS / ΔH / ΔG: DSC
Description: DSC measurements were conducted on a VP-DSC instrument (MicroCal, LLC, Northampton, Mass.). For each peptide, an instrument baseline was established by filling both the sample and the reference cell with degassed 50 mM HOAc(aq) (pH 2.9) and scanning from 5-98° C. at 15° C./h until at least 3 consecutive overlaying scans were observed. The last of these scans was used as the baseline for each subsequent peptide scan.
Peptide solutions (˜0.5 mg/mL in 50 mM HOAc(aq)), incubated at 4° C. for ≧48 h, were degassed and loaded into the sample cell (without removing the reference solution) during the cool down from the final baseline scan (at ˜15° C.). Samples were scanned from 5-98° C. at 15° C./h; the first scan of each sample was used in the analysis. […] Nevertheless, a second run with a fresh sample (incubated at 4° C. for ≧48 h) gave a trace that overlaid with the initial scan for both peptides.
After DSC measurements, peptide concentrations were determined by quantitative amino acid analysis (Scientific Research Consortium, Inc., St. Paul, Minn.). Peptide concentrations of 231 μM for (ProHypGly)10 and 129 μM for (ProMopGly)10 were calculated from the average of Gly and Pro content.
Data processing was done using the MicroCal software in the Origin 7 program (OriginLab Corp., Northampton, Mass.). For each sample, the appropriate reference scan was subtracted from the sample scan and the data were normalized to the monomer concentrations (determined above).
Values of ΔH (per mole of monomer) were obtained by direct integration of the DSC exotherms. Using ΔH and the exotherm maxima as the Tm (64.3° C. for (ProHypGly)10 and 73.8° C. for (ProMopGly)10), TΔS (at Tm) was calculated with the equation: Tm=ΔH/(ΔS+R·1n(0.75c^2)), where c is the concentration of monomeric peptide. (See Engel and Bäichinger P. Top. Curr. Chem. 247:7-33 (2005)). Values of ΔG were then calculated with the equation: ΔG=ΔH−TΔS. […] (See Nishi et. al. (2005)). The data of Kobayashi and coworkers were normalized to T°=71.9° C. (which is the T° for (ProProGly)10, i.e. where ΔG=0). Because our thermodynamic data for (ProMopGly)10 were determined at nearly the same temperature (73.8° C.), comparisons of the three peptides are meaningful.

[5] = cited from earlier work; for ΔG: values from Nishi et al. (2005) (Kobayashi and coworkers); for ΔG / TΔS / ΔH: normalized to T°=71.9° C.; for TΔS / ΔH: values from Nishi et al. (2005)
[6] = Sakakibara et al. (1973); cited from earlier work
[7] = compared with (ProProGly)10 chains; Chopra and Ananthanarayanan (1982); cited from earlier work
[8] = value from Holmgen et al. Nature 392:666-667 (1998); cited from earlier work
[9] = Crystal structure conformation (main-chain dihedral angles, n→π* geometry); assay type: physicochemical; settings: crystalline Ac-Mop-OMe
Description: [^13CH3]Ac-Mop-OMe (10 mg) was dissolved in 1:1 CH2Cl2/hexanes (1 mL) and the solution was allowed to stand at room temperature in a loosely-capped vial. Slow evaporation afforded crystals suitable for X-ray analysis after ˜72 h (all solvent had evaporated).
A colorless crystal with approximate dimensions 0.49×0.41×0.23 mm^3 was selected under oil under ambient conditions and attached to the tip of a nylon loop. The crystal was mounted in a stream of cold N2 (g) at 100(2) K and centered in the X-ray beam by using a video camera.
The crystal evaluation and data collection were performed on a Bruker CCD-1000 diffractometer with Mo Kα (λ=0.71073 Å) radiation and the diffractometer-to-crystal distance of 4.9 cm.
The initial cell constants were obtained from three series of scans at different starting angles. Each series consisted of 20 frames collected at intervals of 0.3° in a 6° range about ω with the exposure time of 10 s per frame. A total of 69 reflections were obtained. The reflections were indexed successfully by an automated indexing routine built in the SMART program. The final cell constants were calculated from a set of 4805 strong reflections from the actual data collection.
Data were collected by using the full-sphere data collection routine. The reciprocal space was surveyed to the extent of a full sphere to a resolution of 0.80 Å. A total of 6155 data were harvested by collecting three sets of frames with 0.3° scans in ω and ? with an exposure time 10 s per frame. These highly redundant datasets were corrected for Lorentz and polarization effects. The absorption correction was based on fitting a function to the empirical transmission surface as sampled by multiple equivalent measurements. (Bruker-AXS. (2000-2003) SADABS V.2.05, SAINT V.6.22, SHELXTL V.6.10 & SMART 5.622 Software Reference Manuals. Bruker-AXS, Madison, Wis., USA.)
The systematic absences in the diffraction data were consistent for the space groups P21 and P21/m.
A successful solution by the direct methods provided most non-hydrogen atoms from the E-map. The remaining non-hydrogen atoms were located in an alternating series of least-squares cycles and difference Fourier maps. All non-hydrogen atoms were refined with anisotropic displacement coefficients. All hydrogen atoms were found in the difference map and refined independently. The absolute configuration was assigned from the known synthetic procedure.
The final difference Fourier map was featureless. The molecular diagram is drawn with 50% probability ellipsoids as depicted in FIG. 2.

[10] = values from Bretscher et al. (2001)
[11] = mean values from two molecules in ref 18
[12] = mean values for Hyp in 13 (Bella et al. 1994; Miles and Burjanadze 2001)

COC(=O)[C@@H]1C[C@@H](F)CN1C(C)=O [Ac-Flp-OMe]
Kt/c [1, 10]: 6.7
φ [2, 11]: −55.0 °
ψ [2, 11]: 140.5 °
ω [2, 11]: −178.9 °

(ProMopGly)10 [Peptide 2]
stability of triple helix compared with triple helical peptide 1 ([3]; aqueous ethylene glycol): more stable
Tm, water [3]: 70.1 °C
Tm, EG(aq) [3]: 89.1 °C
conformational stability of triple helices compared with those of 1 ([3]; in water (50 mM HOAc)): substantially more conformational stability
Tm (DSC exotherm maxima) ([4]; 50 mM HOAc): 73.8 °C
TΔS ([4]; at Tm 73.8° C., calculated from ΔH and Tm): -25.2 kcal/mol
ΔH ([4]; per mole of monomer, 50 mM HOAc, at 73.8° C.): -27.9 kcal/mol
ΔG ([4]; ΔG=ΔH−TΔS, at 73.8° C.): -2.7 kcal/mol

COC(=O)[C@@H]1C[C@@H](O)CN1C(C)=O [Ac-Hyp-OMe]
Kt/c [1, 10]: 6.1
φ [2, 11]: −57.0 °
ψ [2, 11]: 150.8 °
ω [2, 11]: −178.8 °

(ProHypGly)10 [Peptide 1]
Tm, water [3]: 62.0 °C
Tm, EG(aq) [3]: 77.1 °C
Tm (DSC exotherm maxima) ([4]; 50 mM HOAc): 64.3 °C
TΔS ([4]; at 64.3° C.): -27.3 kcal/mol
ΔG ([4]; at 64.3° C.): -2.2 kcal/mol
ΔH ([4]; at 64.3° C.): -29.5 kcal/mol
ΔG [5]: −2.0^c kcal/mol
ΔG ([5]; listed as (ProHypGly)10): -2.0 kcal/mol
TΔS [5]: −33.2^c kcal/mol
ΔH [5]: −35.2^c kcal/mol
Kt/c ([1]; Hyp in 13 (triple helix)): ∞
φ [2, 12]: −59.6 °
ψ [2, 12]: 149.8 °
ω [2, 12]: 178.5 °
melting temperature of a triple helix [6]: 58 °C
rate at which chains fold into a triple helix [7]: substantially greater

(ProEopGly)10
triple-helix stability compared with Hyp (or Mop) ([3]; in water, no value or method printed): less stable

(ProProGly)10
T° (where ΔG=0) ([5]; data of Kobayashi and coworkers (Nishi et al. 2005)): 71.9 °C
melting temperature of a triple helix [6]: 24 °C

(ProFlpGly)10 [Peptide 3]
Tm, water [8]: 91^d ° C.
ΔG [5]: −3.3^c kcal/mol
TΔS [5]: −17.2^c kcal/mol
ΔH [5]: −20.5^c kcal/mol

COC(=O)[C@@H]1C[C@@H](OC)CN1C(C)=O [Ac-Mop-OMe, N-(2-^13CH3-Acetyl)-(2S,4R)-4-methoxyproline methyl ester]
φ [9]: −58.1 ± 0.1 °
ψ [9]: 147.7 ± 0.1 °
ω [9]: −179.7 ± 0.1 °
Oi-1...C′i=Oi angle ([9]; n→π* interaction): 94.6 °
Oi-1...C′i=Oi distance ([9]; n→π* interaction): 2.84 Å
